Reference: patent US8664179B2, “Identification of novel antagonist toxins of T-type calcium channel for analgesic purposes” (Centre National de la Recherche Scientifique (CNRS), priority 2009, dated 2014)
Ends that are not written are not given here.

What was measured:
[1] = molecular target: T1, human Cav3.2 calcium channel (Homo sapiens, UniProt O95180); experiment: Whole-cell patch clamp on HEK293 cells stably expressing the human Cav3.2 calcium channel; assay type: cell-based; settings: CaV3.2 current, HEK293, FIG. 8
T1 construct: expressed in transfected cells
T1 sequence (O95180 whole entry): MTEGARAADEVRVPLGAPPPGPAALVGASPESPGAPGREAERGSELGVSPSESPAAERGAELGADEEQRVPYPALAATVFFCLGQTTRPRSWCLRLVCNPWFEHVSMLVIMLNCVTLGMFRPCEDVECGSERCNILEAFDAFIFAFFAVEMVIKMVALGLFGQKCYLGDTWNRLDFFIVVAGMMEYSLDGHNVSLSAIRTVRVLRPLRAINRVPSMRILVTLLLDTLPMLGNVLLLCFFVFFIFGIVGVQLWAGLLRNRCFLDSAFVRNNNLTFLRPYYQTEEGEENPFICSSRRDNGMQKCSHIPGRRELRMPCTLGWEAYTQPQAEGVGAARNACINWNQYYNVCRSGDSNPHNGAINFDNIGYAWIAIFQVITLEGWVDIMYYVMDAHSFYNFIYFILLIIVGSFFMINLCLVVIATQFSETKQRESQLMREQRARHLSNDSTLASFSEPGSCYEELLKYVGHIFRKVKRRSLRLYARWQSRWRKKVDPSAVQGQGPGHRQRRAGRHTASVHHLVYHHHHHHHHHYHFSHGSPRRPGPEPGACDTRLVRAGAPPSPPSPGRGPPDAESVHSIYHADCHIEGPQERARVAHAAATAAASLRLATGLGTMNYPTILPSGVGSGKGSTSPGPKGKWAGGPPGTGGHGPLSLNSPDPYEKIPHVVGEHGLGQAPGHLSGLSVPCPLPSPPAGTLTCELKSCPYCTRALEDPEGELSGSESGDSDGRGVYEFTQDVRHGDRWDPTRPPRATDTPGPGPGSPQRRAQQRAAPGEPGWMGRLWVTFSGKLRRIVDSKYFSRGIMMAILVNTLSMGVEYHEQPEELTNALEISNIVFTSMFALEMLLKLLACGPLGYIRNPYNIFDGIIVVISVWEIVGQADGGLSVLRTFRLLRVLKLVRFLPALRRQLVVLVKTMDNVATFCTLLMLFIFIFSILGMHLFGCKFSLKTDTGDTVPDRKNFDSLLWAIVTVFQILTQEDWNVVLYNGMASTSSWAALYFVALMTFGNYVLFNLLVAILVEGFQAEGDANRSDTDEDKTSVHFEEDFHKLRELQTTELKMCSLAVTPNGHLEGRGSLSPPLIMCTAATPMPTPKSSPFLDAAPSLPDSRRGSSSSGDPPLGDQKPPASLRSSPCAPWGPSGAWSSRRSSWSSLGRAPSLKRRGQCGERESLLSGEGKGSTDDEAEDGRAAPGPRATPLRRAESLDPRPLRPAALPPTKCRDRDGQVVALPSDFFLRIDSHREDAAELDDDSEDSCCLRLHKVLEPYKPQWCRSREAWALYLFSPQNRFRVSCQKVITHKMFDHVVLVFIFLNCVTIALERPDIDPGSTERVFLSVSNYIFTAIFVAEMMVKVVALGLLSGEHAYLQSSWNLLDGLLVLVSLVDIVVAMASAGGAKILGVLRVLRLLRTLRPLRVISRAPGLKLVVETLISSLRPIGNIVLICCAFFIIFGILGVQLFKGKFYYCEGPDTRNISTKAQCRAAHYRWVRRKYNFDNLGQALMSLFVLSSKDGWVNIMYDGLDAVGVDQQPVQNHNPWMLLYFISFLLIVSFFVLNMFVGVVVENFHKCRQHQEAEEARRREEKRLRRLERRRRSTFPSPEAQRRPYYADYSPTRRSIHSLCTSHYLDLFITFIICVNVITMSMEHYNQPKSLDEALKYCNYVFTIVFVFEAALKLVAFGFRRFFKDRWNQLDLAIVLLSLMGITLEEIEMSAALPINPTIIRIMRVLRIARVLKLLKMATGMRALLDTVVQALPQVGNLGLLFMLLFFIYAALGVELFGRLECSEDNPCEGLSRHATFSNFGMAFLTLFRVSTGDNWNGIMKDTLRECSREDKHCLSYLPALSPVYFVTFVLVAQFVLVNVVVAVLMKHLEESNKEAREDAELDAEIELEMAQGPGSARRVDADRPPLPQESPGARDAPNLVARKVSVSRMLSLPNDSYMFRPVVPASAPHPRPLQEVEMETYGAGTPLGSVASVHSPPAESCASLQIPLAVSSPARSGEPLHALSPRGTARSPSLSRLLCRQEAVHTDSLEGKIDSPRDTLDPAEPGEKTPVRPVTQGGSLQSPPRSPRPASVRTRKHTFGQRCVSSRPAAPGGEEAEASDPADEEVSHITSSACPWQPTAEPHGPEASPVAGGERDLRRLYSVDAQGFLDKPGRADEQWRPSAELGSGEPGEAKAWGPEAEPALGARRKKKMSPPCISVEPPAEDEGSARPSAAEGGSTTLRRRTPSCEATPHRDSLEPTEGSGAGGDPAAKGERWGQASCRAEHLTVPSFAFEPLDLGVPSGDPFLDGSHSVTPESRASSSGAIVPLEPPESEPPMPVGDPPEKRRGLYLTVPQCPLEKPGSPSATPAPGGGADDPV
Experimental: Starting from this stock concentration, the peptides were diluted in a solution corresponding to the extracellular solution used for the patch clamp analysis. This solution has the following composition (in mM): NaCl 135, TEACl 20, HEPES 10, CaCl2 2, MgCl21 (pH 7.3 with TEAOH).
HEK293 cells (ATCC) stably expressing the complementary DNA sequence of the human Cav3.2 calcium channel were used. At each passage of the cell line, cells were seeded at low density on culture dishes for “patch clamp” analysis (molecular electrophysiology).
The electrophysiological recordings were made by the “patch clamp” technique in the “whole cell” configuration using an Axopatch200B amplifier controlled by a Digidata interface and the pClamp10 software (Molecular Devices). The extracellular recording solution containing 2 mM calcium is described above.
The intrapipette solution used for the recordings has the following composition: CsCl 130 mM, HEPES 10 mM, EGTA 10 mM, CaCl2 2 mM, MgCl2 1 mM, MgATP 4 mM, TrisGTP 0.3 mM (pH 7.3 with NaOH). The results are analyzed using [sequence] (registered trademark), EXCEL (registered trademark) and [sequence] (registered trademark) software. […]
These “dose-effect” curves were analyzed with [sequence] […]

human Cav3.2 = molecular target: T2, human Cav3.2 (Homo sapiens, UniProt O95180); experiment: Double microelectrode imposed-voltage recording of CaV3.2 current in Xenopus oocytes; assay type: cell-based; settings: 5 mM barium, depolarization at -30 mV from -100 mV, after 30 seconds (FIG. 2)
T2 construct: expressed in transfected cells; host or cells: Xenopus laevis oocytes (cDNA injection)
T2 sequence (O95180 whole entry): as above
Experimental: The current is recorded in a solution containing 5 mM barium as charge carrier and it is produced by depolarization at −30 mV starting from a rest potential of −100 mV.
The cDNA coding for human Cav3.2 is injected into oocytes of Xenopus (Xenopus laevis) as described in Altier, C., Dubel, S. J., Barrére, C., Jarvis, S. E., Stotz, S. C., Spaetgens, R. L., Scott, J. D., Cornet, V., De Waard, M., Zamponi, G. W., Nargeot, J. and Bourinet, E. (2002) “Trafficking of L-type calcium channels mediated by postsynaptic scaffolding protein AKAP79.” J. Biol. Chem., 277, 33598-33603 (Ref 5) and in Dubel, S. J., Altier, C., Chaumont, S., Lory, P., Bourinet, E. and Nargeot, J. (2004) “Plasma Membrane Expression of T-type Calcium Channel {alpha}1 Subunits Is Modulated by High Voltage-activated Auxiliary Subunits.” J Biol Chem, 279, 29263-29269 (Ref 6). The currents are recorded by the technique of imposed voltage by double microelectrode using a [sequence]500 amplifier (registered trademark) (MOLECULAR DEVICES (registered trademark)) controlled by the PCLAMP9 software (registered trademark). […] The fractions (10 μl) are applied manually, directly on the oocyte recorded by means of a pipette.

C57BL/6J mice [2] = experiment: Tail immersion test in a water bath at 46° C. (thermal pain); assay type: in vivo; settings: intrathecal injection, 10 and 100 nM, versus control group receiving physiological solution
Experimental: Mice are used for observing the analgesic effect of the peptide of the invention with respect to pain induced by thermal stimuli.
(§1) The mice are C57BL/6J wild-type mice and C57BL/6J CaV3.2−/− mice. The total number of mice is 10 wild-type and 10 CaV3.2−/−.
Two groups of mice (C57BL/6J) are used, one group injected intrathecally with a physiological solution comprising the peptide of the invention at a concentration of 10 and 100 nM and a second group (control group) receiving only intrathecal injection of physiological solution alone. The mice are then submitted to the test of immersion of the tail in a water bath at 46° C. The purpose of this experiment is to determine the time after which the mice react to the painful heat, thus showing the threshold of appearance of the painful signal connected with perception of heat. The same experiment is conducted in parallel on two other groups of C57BL/6J mice lacking the gene coding for the T-type calcium channel encoded by the CaV3.2 subunit. The purpose of this experiment is to show the selectivity of the peptide of the invention.

C57BL/6J mice [3] = experiment: Mechanical stimulation test with von Frey bristles; assay type: in vivo; settings: intrathecal injection, 10 and 100 nM, versus control group receiving physiological solution
Experimental: Mice are used for observing the analgesic effect of the peptide of the invention with respect to mechanical stimuli.
as §1
Two groups of mice (C57BL/6J) are used, one group injected intrathecally with a physiological solution comprising the peptide of the invention at a concentration of 10 and 100 nM and a second group (control group) only receiving intrathecal injection of the physiological solution alone. The mice are then submitted to the mechanical stimulation test with von Frey bristles. The purpose of this experiment is to determine the threshold of reaction to a mechanical stimulus of increasing intensity applied on the arch of the foot. The animals' reaction threshold is correlated with the appearance of the painful signal connected with the perception of mechanical pressure. The same experiment is conducted in parallel on two other groups of C57BL/6J mice lacking the gene coding for the T-type calcium channel encoded by the CaV3.2 subunit. The purpose of this experiment is to show the selectivity of the peptide of the invention.

Compound | Hill number (slope of dose-effect curve) [1] | current of the Cav3.2 channel after application of the toxin (human Cav3.2) | time to react to heat (C57BL/6J mice [2]) | threshold of perception of mechanical pressure (C57BL/6J mice [3])
CC[C@H](C)[C@H](NC(=O)[C@H](CCCCN)NC(=O)[C@@H]1CSSC[C@@H]2NC(=O)[C@@H]3CCCN3C(=O)[C@H](CCCNC(=N)N)NC(=O)[C@H](CCC(=O)O)NC(=O)[C@H](CO)NC(=O)[C@H](CC(=O)O)NC(=O)[C@@H]3CSSC[C@H](NC(=O)[C@H](C(C)C)NC(=O)[C@H](CC(C)C)NC(=O)CNC(=O)[C@H](CCC(=O)O)NC(=O)[C@H](CSSC[C@H](NC(=O)[C@@H](N)Cc4ccc(O)cc4)C(=O)N[C@@H](CCC(N)=O)C(=O)N[C@@H](CCCCN)C(=O)N[C@@H](Cc4ccccc4)C(=O)N[C@@H](CC(C)C)C(=O)N[C@@H](Cc4c[nH]c5ccccc45)C(=O)N[C@@H]([C@@H](C)O)C(=O)N3)NC2=O)C(=O)N[C@@H](CCCNC(=N)N)C(=O)N[C@@H](CC(C)C)C(=O)N[C@@H](Cc2c[nH]c3ccccc23)C(=O)N1)C(=O)N[C@@H](CC(N)=O)C(=O)O [synthetic peptide] | 0.89 |  |  | 
CC[C@H](C)[C@H](NC(=O)[C@H](CCCCN)NC(=O)[C@@H]1CSSC[C@@H]2NC(=O)[C@@H]3CCCN3C(=O)[C@H](CCCNC(=N)N)NC(=O)[C@H](CCC(=O)O)NC(=O)[C@H](CO)NC(=O)[C@H](CC(=O)O)NC(=O)[C@@H]3CSSC[C@H](NC(=O)[C@H](C(C)C)NC(=O)[C@H](CC(C)C)NC(=O)CNC(=O)[C@H](CCC(=O)O)NC(=O)[C@H](CSSC[C@H](NC(=O)[C@@H](N)Cc4ccc(O)cc4)C(=O)N[C@@H](CCC(N)=O)C(=O)N[C@@H](CCCCN)C(=O)N[C@@H](Cc4ccccc4)C(=O)N[C@@H](CC(C)C)C(=O)N[C@@H](Cc4c[nH]c5ccccc45)C(=O)N[C@@H]([C@@H](C)O)C(=O)N3)NC2=O)C(=O)N[C@@H](CCCNC(=N)N)C(=O)N[C@@H](CC(C)C)C(=O)N[C@@H](Cc2c[nH]c3ccccc23)C(=O)N1)C(=O)N[C@@H](CC(N)=O)C(=O)O [natural toxin] | 0.87 | strongly inhibited |  | 
YCQKFLWTCDSERPCCEGLVCRLWCKIN (disulfide (positions not given here); not fully specified (bridges); also: 3 disulfide bridges between the 6 cysteines, pairing not given here) [peptide of sequence SEQ ID NO 1] |  |  | significantly longer | significantly higher
